Patent US10016515B2, “DMA, a bis-benzimidazole, confers radioprotection to the intestine via Akt/NFκB dual pathway activation” (Jawaharlal Nehru University, priority 2016, dated 2018)
Read-outs that look alike come from different tables or passages of the source.

Experiments:
[1] = tested on: nude mice; assay: Nude mice survival after 7Gy TBI; type: in vivo, mouse; conditions: 50 mg/kg i.p. 2 h prior to 7Gy TBI
Experimental: Mice were divided into 4 groups containing 5 animals each. Group 1, sham control; Group 2, DMA treated (50 mg/kg, i.p.); Group 3, TBI 7Gy; Group 4, treated with DMA (50 mg/kg i.p.) prior to TBI 7Gy.

[2] = tested on: Akt/NFκB pathway in melanoma tissue of mice; assay: Immunoblot analysis in tumor tissue; type: in vivo, mouse
Experimental: EAT and B16F10 melanoma cell line were harvested and 10×10^6 and 0.8×10^6 cells respectively were injected subcutaneously in the Balb/c mice (n=24) on the right thigh. When tumors reached 0.5 cm^3 in volume, animals were randomized and divided into 4 different groups. The first test group was treated with 50 mg/kg, i.v. DMA, second test group subjected to 8 Gy TBI. Third group received 50 mg/kg, i.v. DMA and 8 Gy TBI both. The control group was similarly administered normal saline (0.1 ml, i.v.). On every alternate days, tumor-bearing thigh of each animal was shaved, and the longest (1) and shortest diameter (b) of the tumors along with height (h) were measured with the help of a vernier calliper. Tumor weight of each animal was calculated using the formula l*b*h/2.
HEK293, MRC5 and A549 cells were treated as indicated earlier. The cell pellet was resuspended in RIPA buffer and allowed to swell on ice for 30 min. Balb/c intestine tissue and tumor tissues were homogenized in RIPA buffer. Protein concentration was determined using Bradford's Assay (Bangalore Genei). […] Signals were detected using enhanced chemiluminescence (ECL system, Pierce) on X-ray film.

[3] = tested on: Balb/c mice; type: in vivo
Experimental: Balb/c mice with or without DMA treatment were placed in a specially designed, well-ventilated acrylic container and subjected to whole-body irradiation at 5, 6, 8, 9 or 10 Gray (Gy) in a single fraction.
The mice were grouped as follows: Group 1, Sham control (normal saline treated); Group 2, radiation control (whole body exposure to 8 Gy); Group 3, treated with increasing doses (100, 150, 200, 450 and 600 mg/kg bw) of DMA 2 h prior to whole body exposure to 8 Gy and Group 4 treated with similar DMA doses only. Survival study was carried out for a period of 30 days and animals were routinely monitored for their body weight, food and water intake, radiation sickness symptoms and mortality to fix the highest effective dose of DMA against radiation induced toxicity.
Mice were treated with DMA (200 mg/kg bw) prior to whole body exposure to 5, 6, 8, 9 & 10 Gy. DRF was calculated ratio of LD50/30 mice treated with both DMA and radiation to the LD50/30 of mice treated with saline and radiation. Similarly survival with different route of administration of DMA was studied at 8 and 9 Gy TBI.

[4] = tested on: HEK293 cells; assay: Annexin-V staining, control siRNA and Akt siRNA transfected cells; type: cell-based, human; conditions: for Apoptotic events: Akt knocked down HEK293, DMA+Radiation; for Total early and late apoptotic cells: control siRNA HEK293, DMA+Radiation
Experimental: HEK 293 cells were transfected with Akt siRNA and control-siRNA (Santa Cruz Biotechnology Inc.) according to the manufacturer's instructions. Semi-quantitative RT-PCR was performed with primers specific for Akt and ACTB in control siRNA and Akt siRNA treated HEK cells for analysing knockdown of Akt […] gene expression.
HEK293 cells (2×10^5 cells/plate) were transfected with control siRNA and siRNA-Akt, and DMA, Radiation and DMA+Radiation treatments were given as described earlier and samples were collected at 3, 6, 12, 18 and 24 h (data not shown for 12 and 18 h). Samples were prepared according to the manufacturer's instructions (BD Pharmingen™ Annexin V: FITC Apoptosis Detection Kit I, Catalog Number 556547, USA) and the samples were subjected to flow cytometry analysis (Becton Dickinson).

[5] = tested on: Balb/c mice and tumor bearing mice tissues; assay: Tissue histopathology after 8 Gy TBI; type: in vivo, mouse
Experimental: The hepatic, spleen and small intestine specimens were collected from Balb/c mice and tumor bearing mice three days after 8 Gy TBI with or without pre-treatment with DMA (50 mg/kg) 2 hour before TBI. Tissue specimens were fixed in 10% buffered formalin, embedded in paraffin, sectioned and stained with H&E and examined using an upright trinocular microscope attached to a CCD camera.

[6] = 50 mg/kg i.v. before 8Gy TBI, 3 days postirradiation
[7] = melanoma TBM, 50 mg/kg i.v., 8Gy TBI

COc1ccc(-c2nc3cc(-c4nc5cc(N6CCN(C)CC6)ccc5[nH]4)ccc3[nH]2)cc1OC [DMA, 5-(4-methylpiperazin-1-yl)-2-[2′-(3,4-dimethoxyphenyl)-5′-benzimidazolyl]benzimidazole]
30-days survival of nude mice [1]: 40% | Phosphorylated Akt level ([2]; DMA pretreated to irradiation of TBM vs other conditions): lower | Akt/NFκB signaling in response to radiation ([2]; tumor tissues of TBM, 50 mg/kg i.v. + 8Gy TBI): does not modulate | Survival / radioprotection ([3]; 50 mg/kg i.v. 2 h prior to 8Gy TBI): 100% | Survival ([3]; 50 mg/kg i.v., 9Gy TBI): 50% | Radioprotection ([3]; 50 mg/kg s.c. 3 h prior to 8Gy TBI): 20% | 30-days survival rate ([3]; 100 mg/kg oral before 8Gy TBI): 54% | Survival ([3]; 125 mg/kg i.p. 2 h before 8Gy): 55% | 30-days survival rate ([3]; 150 mg/kg oral before 8Gy TBI): 70% | 30-days survival rate ([3]; 200 mg/kg oral before 8Gy TBI (dose finding, FIG. 4C)): 80% | 30-day survival rate ([3]; 200 mg/kg oral, 5Gy TBI): 100% | 30-day survival rate ([3]; 200 mg/kg oral, 6Gy TBI): 100% | 30-day survival rate ([3]; 200 mg/kg oral, 8Gy TBI (FIG. 4D)): 82% | 30-day survival rate ([3]; 200 mg/kg oral, 9Gy TBI): 18% | 30-day survival rate ([3]; 200 mg/kg oral, 10Gy TBI): 12% | Dose reduction factor (DRF) ([3]; 200 mg/kg oral, ratio of LD50/30, Balb/c mice): 1.28 | Effect of DMA by itself on rodents ([3]; DMA only): no effect | Body weight after TBI ([3]; DMA pre-treated mice, after initial 9 days of radiation): considerable weight regain | Apoptotic events ([4]; 3 h): 23% | Apoptotic events ([4]; 6 h): 21% | Apoptotic events ([4]; 24 h): 22% | Total early and late apoptotic cells ([4]; 3 h): 12% | Total early and late apoptotic cells ([4]; 6 h): 9% | Total early and late apoptotic cells ([4]; 24 h): 7% | Intestine histology [5, 6]: restored the crypts and villi architecture | Liver histology [5, 6]: reduction in the number of pyknotic and inflammatory kupffer cells | Spleen histology [5, 6]: restored the white pulp | Intestine histology, tumor bearing mice [5, 7]: intact better heighted villi and crypts | Lung alveolar structure, tumor bearing mice [5, 7]: less destructured | Spleen histology, tumor bearing mice [5, 7]: structural retention through white and red pulp protection
